# Experimental data from patent US20060088545A1, “Use of inhibitors of the protease of the human immunodeficiency virus (hiv) to block cell migration and/or invasion, tissue infiltration and oedema for the therary of diseases associated therewith” (priority 2001, published 2006).
# Test system: angiogenesis induced by bFGF or VEGF in the chorioallantoic membrane
# Protocol: CAM assays were performed with 1 mm^3 sterilized gelatin sponges (Gelfoam; Upjohn Co, Kalamazoo, Mich.) adsorbed with bFGF or VEGF (1 μg or 100 ng, respectively) in 5 μl of PBS, and with buffer, HIV-PI (10 μM) or taxol (250 nM) (Bristol-Myers Squibb Co., Princeton, N.J.) as described (Ribatti et al, Int. J. Dev. Biol., 1996). CAM were examined daily until day 12 under an Olympus SZX9 stereomicroscope. Images (1024×1024 pixels) were captured at a distance of 2 mm from the edge of the sponge using a cooled digital CCD Hamamatsu ORCA camera (Hamamatsu Photonics Italia, Arese, Italy). Vessel number was quantified with the ImageProPlus 4.0 imaging software (Media Cybernetics, Silver Spring, Md.) in 3 randomly selected areas per egg ([…]).
# Results are expressed as the average number of vessels/mm^2±SD from the indicated number of CAM per experimental condition.
compound,measurement,setting,value
"CC(=O)O[C@H]1C(=O)[C@@]2(C)[C@H]([C@H](OC(=O)c3ccccc3)[C@]3(O)C[C@H](OC(=O)[C@H](O)[C@@H](NC(=O)c4ccccc4)c4ccccc4)C(C)=C1C3(C)C)[C@]1(OC(C)=O)CO[C@@H]1C[C@@H]2O [Taxol, taxol]",Average vessel (number/mm^2 ± SD),"bFGF 1 μg, HIV-PI 10 μM, taxol 250 nM",7.71 ± 1.63 number/mm^2
same,basal CAM vascularization,drug administered alone,did not affect
same,toxicity in CAM,in vivo,not associated with toxicity
